According to PMC8844836 (Journal of molecular neuroscience : MN, 2020):
“Also recorded” adds a separate entry of the source. Values belong to the compound of their own block, whether it stands above or below them.

Assays:
EGFR = conditions: NSCLC cells ref Moody et al., 2019; cited from earlier work
HER2 = conditions: NSCLC cells ref Moody et al., 2019; cited from earlier work
HER3 [1] = experiment: HER3 tyrosine phosphorylation, Western blot, Calu-3 cells; format: cell-based; conditions: for effect of ROS inhibitors on HER3 transactivation, statistics: Fig. 4B, mean ± S.D. of 3 experiments, relative to PACAP by ANOVA; for effect of ROS inhibitors on PACAP-induced HER3 tyrosine phosphorylation: Western blot (Fig. 4A), 3 experiments
PAC1 (Calu-3 cells) = target: T1, PAC1 (Calu-3 cells) (Homo sapiens, UniProt P41586); experiment: cell-based
T1 sequence (P41586 21-468): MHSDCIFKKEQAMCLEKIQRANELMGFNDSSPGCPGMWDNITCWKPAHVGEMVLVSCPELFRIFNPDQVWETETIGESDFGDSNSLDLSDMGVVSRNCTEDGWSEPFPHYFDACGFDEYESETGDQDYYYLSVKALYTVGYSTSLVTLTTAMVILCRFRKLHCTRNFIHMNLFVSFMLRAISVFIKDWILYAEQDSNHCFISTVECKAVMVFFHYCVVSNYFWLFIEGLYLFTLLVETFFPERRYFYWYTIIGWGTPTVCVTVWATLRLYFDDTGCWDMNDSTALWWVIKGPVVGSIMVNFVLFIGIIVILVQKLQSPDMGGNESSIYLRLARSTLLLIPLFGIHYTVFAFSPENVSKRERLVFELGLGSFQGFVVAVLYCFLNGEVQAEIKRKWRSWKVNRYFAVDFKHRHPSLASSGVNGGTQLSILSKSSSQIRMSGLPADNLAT

HER3 [2] = conditions: NSCLC cells ref Lee et al., 2020; cited from earlier work
NSCLC cells = experiment: Proliferation of NSCLC cells; format: cell-based
Calu-3 cells = experiment: Clonogenic assay, Calu-3 cells; format: cell-based
HER3 [3] = experiment: HER3 tyrosine phosphorylation, NSCLC cells; format: cell-based
ERK = ERK phosphorylation, Western blot, Calu-3 cells; format: cell-based

Compound: c1ccc2c(c1)[I+]c1ccccc1-2 [DPI, diphenylene iodonium]
effect on PACAP-induced EGFR tyrosine phosphorylation (ROS inhibitors) (EGFR): inhibited
effect on PACAP-induced HER2 tyrosine phosphorylation (ROS inhibitors) (HER2): inhibited
effect of ROS inhibitors on HER3 transactivation, statistics (HER3 [1]): not DPI impaired significantly
effect of ROS inhibitors on PACAP-induced HER3 tyrosine phosphorylation (HER3 [1]): weakly

IC50 (PAC1 (Calu-3 cells)): 31.4 ± 4.9 nM
Compound: CSCC[C@H](NC(=O)[C@H](CCC(N)=O)NC(=O)[C@H](CCCCN)NC(=O)[C@H](CCCNC(=N)N)NC(=O)[C@H](Cc1ccc(O)cc1)NC(=O)[C@H](CCCNC(=N)N)NC(=O)[C@H](CO)NC(=O)[C@H](Cc1ccc(O)cc1)NC(=O)[C@H](CO)NC(=O)[C@H](CC(=O)O)NC(=O)[C@@H](NC(=O)[C@@H](N)Cc1ccccc1)[C@@H](C)O)C(=O)N[C@@H](C)C(=O)N[C@H](C(=O)N[C@@H](CCCCN)C(=O)N[C@@H](CCCCN)C(=O)N[C@@H](Cc1ccc(O)cc1)C(=O)N[C@@H](CC(C)C)C(=O)N[C@@H](C)C(=O)N[C@@H](C)C(=O)N[C@H](C(=O)N[C@@H](CC(C)C)C(=O)NCC(=O)N[C@@H](CCCCN)C(=O)N[C@@H](CCCNC(=N)N)C(=O)N[C@@H](Cc1ccc(O)cc1)C(=O)N[C@@H](CCCCN)C(=O)N[C@@H](CCC(N)=O)C(=O)N[C@@H](CCCNC(=N)N)C(=O)N[C@H](C(=O)N[C@@H](CCCCN)C(=O)N[C@@H](CC(N)=O)C(=O)N[C@@H](CCCCN)C(N)=O)C(C)C)C(C)C)C(C)C [PACAP(6–38)]

Compound: Bombesin
HER3 tyrosine phosphorylation (HER3 [2]): increases HER3 tyrosine phosphorylation

Compound: COc1cc2ncnc(Nc3ccc(F)c(Cl)c3)c2cc1OCCCN1CCOCC1 [gefitinib]
proliferation of NSCLC cells (NSCLC cells): inhibited proliferation
effect on PACAP-27-induced increase in colony number (Calu-3 cells; 100 nM PACAP-27): impaired
Colony number, + PACAP (Calu-3 cells; with 100 nM PACAP-27, PACAP(6–38) 5 μM, gefitinib 1 μM, trastuzumab 0.1 μg/ml, mAb3481 0.1 μg/ml, mean ± S.D. of 3 determinations): 43 ± 5

Compound: neuregulin (NRG)-1 [NRG-1]
HER3 tyrosine phosphorylation, NSCLC cells (HER3 [3]): increased HER3 tyrosine phosphorylation
proliferation of NSCLC cells (NSCLC cells): increased the proliferation
HER3 phosphorylation, 5, 10 and 30 min (HER3 [1]; Calu-3, PACAP-27 1000 nM or NRG-1 1 μg/ml, 5, 10 and 30 min): moderate
HER3 phosphorylation, 2 min (HER3 [1]; Calu-3, PACAP-27 1000 nM or NRG-1 1 μg/ml, 2 min): weakly stimulates
HER3 phosphorylation, densitometry statistics, 2, 5, 10 and 30 min (HER3 [1]; Fig. 2D, NRG-1 1 μg/ml, Calu-3, 2, 5, 10 and 30 min): significantly increased
ERK phosphorylation, densitometry statistics, 2, 5, 10 and 30 min (ERK; Fig. 2D, NRG-1 1 μg/ml, 2, 5, 10 and 30 min): significantly increased
ERK phosphorylation, 5, 10 and 30 min (ERK; PACAP-27 1000 nM or NRG-1 1 μg/ml, 5, 10 and 30 min): moderate
ERK phosphorylation, 2 min (ERK; PACAP-27 1000 nM or NRG-1 1 μg/ml, 2 min): weakly stimulates
increase in colony number (Calu-3 cells; NRG-1 0.1 μg/ml, PACAP-27 100 nM, 2 weeks): 33%

Compound: O=S(=O)(O)c1cc(O)c(O)c(S(=O)(=O)O)c1 [Tiron]
effect on PACAP-induced EGFR tyrosine phosphorylation (ROS inhibitors) (EGFR): inhibited
effect on PACAP-induced HER2 tyrosine phosphorylation (ROS inhibitors) (HER2): inhibited
effect of ROS inhibitors on HER3 transactivation, statistics (HER3 [1]): significantly impair
effect of ROS inhibitors on HER3 transactivation, statistics (HER3 [1]; listed as Tir): impaired significantly
effect of ROS inhibitors on PACAP-induced HER3 tyrosine phosphorylation (HER3 [1]): strongly inhibited

Compound: CC(=O)N[C@@H](CS)C(=O)O [N-acetyl cysteine]
effect on PACAP-induced EGFR tyrosine phosphorylation (ROS inhibitors) (EGFR): inhibited
effect on PACAP-induced HER2 tyrosine phosphorylation (ROS inhibitors) (HER2): inhibited
effect of ROS inhibitors on HER3 transactivation, statistics (HER3 [1]; listed as NAC): significantly impair; also recorded: impaired significantly
effect of ROS inhibitors on PACAP-induced HER3 tyrosine phosphorylation (HER3 [1]): strongly inhibited
